Values joined by “and” are separate entries in the source; they are usually repeats but may differ in a detail not shown here. Identical values can stand only once. Non-standard residues stand in square brackets, D forms with d. Residues, ends and D or L forms follow the SMILES beside them. ξ: configuration not given here. *: point of attachment. ξF = NC(Cc1ccccc1)C(=O)O; Cbz = O=C(OCc1ccccc1)*
Columns and labels:
rat glial cells C6 = test: Protection from necrosis induced by maitotoxin, C6 (wst-1 viability); format: cell-based
Experimental: Human neuroblastomas SHSY5Y and rat glial cells C6 are seeded at 25 000 cells per well in 96-well plates in DMEM 10% FBS for 24 hours. The L6 rat myoblasts are seeded at 1000 cells per well in DMEM 10% FBS on 96-well microplates coated beforehand with gelatin 0.5% PBS. After culture for 3 days the medium is removed and replaced with a differentiation medium (DMEM+10 μg/ml of insulin+100 μg/ml of transferrin). 50 μl of product A plus 50 μl of solvent or 50 μl of product B are placed in the wells. After incubation for 1 hour at 37° C. under an atmosphere of 5% CO2, 10 μl of maitotoxin is added in order to obtain a final concentration of 0.1 nM to 1 nM (according to the cell type). After incubation for 3 hours at 37° C. under an atmosphere of 5% CO2, the cell viability is determined by adding 10 μl of tetrazolium salts (wst-1, Roche, ref: 1644807). The tetrazolium salts are cleaved into formazan molecules by mitochondrial dehydrogenases. The quantity of formazan formed is directly correlated to the number of metabolically active cells in the culture. Measurement of the absorbance of the formazan is carried out using a multiwell photometer at a wavelength of 420 nm against a reference wavelength of 620 nm.
The theoretical effect was obtained by multiplying the percentage of dead cells in the presence of product A by the percentage of dead cells in the presence of product B (Table 3). The percentage protection against cell death induced by MTX being the percentage of cells kept alive in the presence of the product or products.
In the light of the previous results, the combination of Example 1 with product A and product B at a rate of 100 μM of each of the products is carried out on human neuroblastomas (SHSY5Y; (Table 5A) and on glial cells with 25 μM of product A and 50 μM of product B (C6; Table 5B) on a larger number of cases.

[1] = system: calpain activity in rat glial cells (C6); test: In situ calpain activity in rat glial cells C6 stimulated by maitotoxin; format: cell-based; details: read-out: Inhibition human calpain I, in situ (C6) [IC50 (nM)]; n = 3; maitotoxin 1 nM; 1 h 30 min
Experimental: Human neuroblastomas SHSY5Y and rat glial cells C6 are seeded at a rate of 50,000 and 25,000 cells respectively per well on 96-well plates in DMEM 10% FBS. The next day, the cells which have adhered are washed 3 times in DMEM medium without serum and 40 mM Hepes. 100 microlitres of product B is placed in the wells. After incubation for 1 hour at 37° C. under an atmosphere of 5% CO2, 10 μl containing the fluorescent substrate of calpain (Suc-Leu-Tyr-AMC) and maitotoxin (Sigma, ref: M-9159), in order to obtain a final concentration in the well of 100 μM and of 1 nM respectively are added.
In order to determine the total activity of the cell enzyme, wells containing no product are added to the plate (100 μL DMSO 100th plus 10 μl of MTX and substrate). The background noise is determined by adding control wells with no MTX. Each concentration of the products (0.3 μM to 200 μM for the SHSY5Y's and 0.01 μM to 100 μM for the C6's) is tested in triplicate. The plates are shaken, the fluorescence is read at 380/460 nm using the Victor at T zero. Incubation takes place for four hours for the SHSY5Y and 1 hour 30 minutes for the C6 cells at 30° C. in darkness.

human calpain I = molecular target: T1, human calpain I (Homo sapiens, UniProt P07384); test: Effects on human calpain I (acellular, Suc-Leu-Tyr-AMC fluorescence); format: biochemical; details: enzyme purified from human erythrocytes; 1 h at 25°C; read-out: Inhibition human calpain I, acellular [IC50 (nM)]
T1 construct: enzyme purified from human erythrocytes; purchased Calbiochem 208713; host or cells: human erythrocytes (native tissue source)
T1 sequence (P07384 1-714): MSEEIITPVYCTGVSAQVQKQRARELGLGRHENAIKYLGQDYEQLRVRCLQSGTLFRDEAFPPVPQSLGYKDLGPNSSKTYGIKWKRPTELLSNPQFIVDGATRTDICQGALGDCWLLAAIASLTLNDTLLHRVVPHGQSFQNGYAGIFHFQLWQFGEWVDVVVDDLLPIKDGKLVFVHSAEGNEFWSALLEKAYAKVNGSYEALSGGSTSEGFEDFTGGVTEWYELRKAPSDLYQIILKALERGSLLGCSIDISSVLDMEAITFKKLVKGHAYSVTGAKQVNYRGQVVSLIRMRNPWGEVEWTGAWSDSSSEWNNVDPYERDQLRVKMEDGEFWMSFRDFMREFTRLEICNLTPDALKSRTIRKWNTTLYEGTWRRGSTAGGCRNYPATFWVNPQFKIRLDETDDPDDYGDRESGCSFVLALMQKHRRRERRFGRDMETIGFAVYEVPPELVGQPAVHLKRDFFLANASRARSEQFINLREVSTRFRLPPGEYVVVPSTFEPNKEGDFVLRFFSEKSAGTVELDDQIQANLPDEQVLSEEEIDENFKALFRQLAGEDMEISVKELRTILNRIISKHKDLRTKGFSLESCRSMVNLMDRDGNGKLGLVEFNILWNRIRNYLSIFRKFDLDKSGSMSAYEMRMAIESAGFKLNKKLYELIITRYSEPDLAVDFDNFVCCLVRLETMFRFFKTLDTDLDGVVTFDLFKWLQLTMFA
T1 sequence (P04632 1-268 partner): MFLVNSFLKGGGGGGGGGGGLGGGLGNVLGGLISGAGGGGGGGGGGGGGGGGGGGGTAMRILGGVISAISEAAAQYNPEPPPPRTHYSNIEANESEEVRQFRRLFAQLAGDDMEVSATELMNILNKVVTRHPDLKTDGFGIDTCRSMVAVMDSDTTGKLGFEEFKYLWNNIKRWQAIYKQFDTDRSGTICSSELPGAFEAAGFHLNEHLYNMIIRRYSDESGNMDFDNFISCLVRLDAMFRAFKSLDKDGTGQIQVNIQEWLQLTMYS
Experimental: The test consists of measuring the activity of the enzyme (enzyme purified from human erythrocytes) which is incubated in a buffer in the presence of a peptide substrate coupled with a fluorochrome (amino-methylcourmarin, AMC) and calcium. The enzyme activated by the calcium, proteolyses the substrate and releases the AMC fragment. The AMC released fluoresces at 460 nm under excitation at 380 nm. The activity of the enzyme is therefore proportional to the quantity of fluorescence i.e. of free AMC fragment. The fluorescence (380/460 nm) is measured using a multi-well fluorimeter (Victor 2, Wallac).
Assay is carried out in 96-well microplates with transparent bottoms and black walls in which 10 μl per well of substance to be tested in DMSO 10%, 45 μl of reaction mixture containing the human calpain I at 2.2 U/ml (Calbiochem, ref: 208713), the Suc Leu Tyr-AMC substrate (Bachem, ref: I-1355) at 1.1 mM in a buffer (Tris-HCl 110 mM; NaCl 110 mM; EDTA 2.2 mM; EGTA 2.2 mM; mercaptoethanol 1.1 mM) are distributed. The reaction is initiated by adding 45 μl of CaCl2 22mM. To determine the background noise, control wells without calcium are added to the plate (10 μL DMSO 10%+45 μL of buffer with the enzyme and the susbtrate +45 μL H2O). In order to determine the total activity of the enzyme control wells containing no product are added to the plate (10 μL DMSO 10%+45 μL of buffer with the enzyme and the substrate +45 μL of CaCl2 22 mM ). Each concentration of the products (0.1 nM to 10 μM) is tested in duplicate. The plates are shaken and incubation takes place for one hour at 25° C. in darkness. The fluorescence is read at 380/460 nm using the Victor.

[2] = system: lipidic peroxidation of rat cerebral cortex homogenate; test: In vitro lipidic peroxidation (Fenton reaction, MDA) in rat cerebral cortex membranes; format: biochemical; details: iron/ascorbate, read-out: Inhibition of lipidic peroxidation [IC50 (μM)]
Experimental: The test consists of inducing lipidic peroxidation by Fenton reactions in the presence of iron and ascorbate. The degree of lipidic peroxidation is determined by the concentration of malonaldehyde (MDA). The MDA produced by the lipidic peroxidation of unsaturated fatty acids is a good indicator of lipidic peroxidation (Esterbauer et al, 1990; Meth. Enzymol. 186: 407421). For this colorimetric test, the condensation of a molecule of MDA with two molecules of chromogenic reagent R (N-methyl-2-phenylindole) produces a stable chromophore the maximum absorbance wavelength of which is equal to […].
The membranes are prepared from the cortexes of male Sprague Dawley rats weighing 200 to 250 g. The animals are sacrificed by decapitation and the brains are immediately removed and rinsed in cold Tris HCl 20 mM pH 7.4. The cortexes, after dissection and removal of the white matter, are then ground with the Thomas potter, in Tris HCl buffer 20 mM pH 7.4 at 4° C. The homogenate obtained is centrifuged at low speed in order to eliminate the large debris (515 g for 15 minutes at 4° C.). The supernatant is then distributed into polycarbonate centrifugation tubes and centrifuged at 51500 g for 25 min at 4° C. The membrane pellets are kept at −80° C.
On the day of the experiment, the frozen membranes are resuspended at a concentration of 0.5 equivalent grams of cortex per 5 ml of Tris HCl buffer 20 mM pH 7.4 and homogeneized using a combitips. In 96-well “deep-well” 1 ml polypropylene plates with a conical base, 5 μl per well of the product to be tested or of solvent is mixed with 40 μl of rat cerebral cortex homogenate by centrifugation (800 rpm). The plates are covered with a self-adhesive aluminium sheet and incubated at 37° C. for 15 minutes under agitation. […]
The membranes and the supernatants are separated by filtration under vacuum on a 96-well plate with a multiscreen filtering base NA (Millipore, ref: MANANLY 50). The absorbance of the supernatants recovered in the 96-well plates is read using a photometer.

[3] = single product at 100 μM, n = 1

With `CC(C)C[C@H](NC(=O)OCc1ccccc1)C(=O)NC(C=O)Cc1ccccc1` (stereo partly drawn) [EXAMPLE 2 B, benzyl (1S)-1-{[(1-benzyl-2-oxoethyl)amino]carbonyl)-3-methylbutylcarbamate] (Cbz-Leu-[ξF]-aldehyde) the “Protection from necrosis induced by MTX on C6” value (from here on “Protection”) (rat glial cells C6; single product at 50 μM, n = 3 for Example 2, else n = 1) was 12.05 ± 2.82%, the “Protection” value (rat glial cells C6; single product at 50 μM, n = 3 for Example 2, else n = 1, listed as Z-Leu-Phe-H) was “inactive” and the IC50 [1] was 2200 ± 290 nM. The IC50 (human calpain I) was 8 nM.
For `O=C(O)C(S)=Cc1ccc(I)cc1` [EXAMPLE 4 B, 3-(4-iodophenyl)-2-mercapto-2-propenoic acid], the “Protection” value (rat glial cells C6; single product at 25 μM) was 0.69%, the “Protection” value (rat glial cells C6; [3]) was 0.36% and 2.75% and the IC50 (human calpain I) was 5140 nM.
With `Oc1ccc(Nc2ccccc2)cc1` [EXAMPLE 5 A, 4-hydroxydiphenylamine] the “Protection” value (rat glial cells C6; [3]) was 17.90%, the “Protection” value (rat glial cells C6; single product at 100 μM, n = 1, listed as EXAMPLE 6 A) was 9.43% and the IC50 [2] was 0.093 µM.
`CC(=O)N[C@@H](CC(C)C)C(=O)N[C@@H](CC(C)C)C(=O)N[C@H](C=O)CCCNC(=N)N` [LEUPEPTIN, leupeptin] showed an IC50 (human calpain I) of 73 nM.

Reference: patent US20070265208A1, “Association of calpain inhibitors and reactive oxygen species trapping agents” (priority 2000, published 2007)
